From US20080194628A1, “Donepezil Salts Suitable for the Preparation of Pharmaceutical Compositions” (priority 2004, published 2008)

Conditions: comparison with donepezil hydrochloride tablet

COc1cc2c(cc1OC)C(=O)C(CC1CCN(Cc3ccccc3)CC1)C2.O=S(=O)(O)O (stereo not shown) [Example 12, donepezil sulfate (1:1)]
Stability of tablets prepared from the salt, compared with the tablet prepared from the hydrochloride salt: practically identical to that of the tablet prepared from the hydrochloride salt
